Data taken from PMC10520017, “Discovery of Nedd4 auto-ubiquitination inhibitors” (Scientific Reports, 2023).
Residue numbers refer to the chain shown, from its start. “And” between values parts separate entries of the source, which are not always exact repeats. Equal entries are not always repeated. Where two headings read alike, the source gives them in different places.

Columns and labels:
Nedd4 [1] = biological target: T1, Nedd4 (Homo sapiens, UniProt P46934)
T1 sequence (P46934 1-900 isoform P46934-4): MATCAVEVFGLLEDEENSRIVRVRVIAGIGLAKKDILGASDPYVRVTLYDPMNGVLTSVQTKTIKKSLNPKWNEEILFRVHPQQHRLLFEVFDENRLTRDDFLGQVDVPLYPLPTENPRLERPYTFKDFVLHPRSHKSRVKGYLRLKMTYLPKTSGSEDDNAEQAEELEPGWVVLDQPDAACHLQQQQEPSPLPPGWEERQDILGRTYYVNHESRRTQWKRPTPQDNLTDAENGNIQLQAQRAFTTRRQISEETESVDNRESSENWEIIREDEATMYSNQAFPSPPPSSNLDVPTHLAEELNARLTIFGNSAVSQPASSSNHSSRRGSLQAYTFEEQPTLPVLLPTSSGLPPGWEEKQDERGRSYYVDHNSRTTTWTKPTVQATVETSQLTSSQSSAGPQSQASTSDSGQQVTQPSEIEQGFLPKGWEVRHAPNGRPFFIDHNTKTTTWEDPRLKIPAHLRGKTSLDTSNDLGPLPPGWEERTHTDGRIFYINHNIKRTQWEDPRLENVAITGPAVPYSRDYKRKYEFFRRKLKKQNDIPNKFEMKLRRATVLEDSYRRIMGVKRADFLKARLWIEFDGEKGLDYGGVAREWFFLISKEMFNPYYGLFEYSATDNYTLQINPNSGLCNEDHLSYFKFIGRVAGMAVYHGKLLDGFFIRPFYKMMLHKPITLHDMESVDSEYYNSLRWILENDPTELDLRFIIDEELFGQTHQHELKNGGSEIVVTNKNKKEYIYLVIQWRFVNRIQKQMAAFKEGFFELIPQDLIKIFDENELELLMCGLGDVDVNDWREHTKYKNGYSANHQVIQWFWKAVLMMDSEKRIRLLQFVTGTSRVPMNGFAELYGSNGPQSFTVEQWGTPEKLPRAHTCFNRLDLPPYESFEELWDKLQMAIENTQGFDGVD
Experimental: (§1) All time-resolved fluorescence resonance energy transfer (TR-FRET) auto-ubiquitination assays were performed in a final volume of 10 µL in PerkinElmer 384-well flat bottom white OptiPlate™ polystyrene microplates (PerkinElmer Cat. No. 6007290). […] A low concentration of NP-40 detergent (0.00063% v/v) was chosen for the Nedd4 auto-ubiquitination assay since this concentration yielded optimal terbium emission at 485 nm after 340 nm excitation (Supplementary Fig. 2). […] Reaction mixes containing all assay components except ATP-MgCl2 were preincubated with either library compounds dissolved in 1% DMSO or DMSO alone at RT for up to 2 h. To initiate the auto-ubiquitination reaction, 2 mM ATP-MgCl2 was added and incubated at 37 °C for 60–90 min. TR-FRET signal was measured in a Synergy 4 microplate reader (BioTek) using a 340/30 nm excitation filter and measuring the emission ratio using 485/20 nm and 528/20 nm emission filters. Fluorescence measurement was performed over a 400 µs window following a 100 µs delay post-excitation (Fig. 1).
(§2) All experiments were performed in triplicate (n = 3), and plotted values represent the average of three replicates with the standard deviation. TR-FRET signal refers to background values subtracted using control wells containing Tb-SA and Ub-FITC. Data were plotted using GraphPad 9.1.2 (GraphPad, La Jolla, CA) and fitted to a four-parameter sigmoidal dose–response curve. Where applicable, the dose–response was normalized and expressed as a percentage of auto-ubiquitination activity relative to the DMSO control.

Nedd4 [2] = tested on: Nedd4; design: method as in PMID 27979631; conditions: cited from earlier work
WWP1 = WWP1 (Homo sapiens, UniProt Q9H0M0); conditions: 200 µM
Chain of WWP1 (Q9H0M0 349-922): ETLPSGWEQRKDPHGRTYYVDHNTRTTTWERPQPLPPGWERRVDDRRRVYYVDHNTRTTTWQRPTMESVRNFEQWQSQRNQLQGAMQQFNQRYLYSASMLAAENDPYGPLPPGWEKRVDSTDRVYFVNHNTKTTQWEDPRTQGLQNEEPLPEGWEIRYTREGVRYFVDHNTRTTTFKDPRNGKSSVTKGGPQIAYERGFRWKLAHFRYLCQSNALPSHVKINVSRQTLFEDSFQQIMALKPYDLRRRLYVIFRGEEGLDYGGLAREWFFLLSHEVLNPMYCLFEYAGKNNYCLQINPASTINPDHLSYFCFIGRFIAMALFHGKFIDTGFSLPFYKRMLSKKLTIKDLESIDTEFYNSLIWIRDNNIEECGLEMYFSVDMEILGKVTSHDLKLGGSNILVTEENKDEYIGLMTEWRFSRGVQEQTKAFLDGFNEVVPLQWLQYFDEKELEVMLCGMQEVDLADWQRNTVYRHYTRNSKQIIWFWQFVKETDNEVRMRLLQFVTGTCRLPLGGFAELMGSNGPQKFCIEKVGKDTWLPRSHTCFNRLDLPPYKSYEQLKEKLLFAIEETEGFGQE
Experimental: (§3) All time-resolved fluorescence resonance energy transfer (TR-FRET) auto-ubiquitination assays were performed in a final volume of 10 µL in PerkinElmer 384-well flat bottom white OptiPlate™ polystyrene microplates (PerkinElmer Cat. No. 6007290). […] Concentrations of Ub activating (E1) and conjugating (E2) enzymes and fluorophores were selected to provide sufficient TR-FRET signal intensity for compound screening without excessive reagent consumption (Supplementary Fig. 3). Reaction mixes containing all assay components except ATP-MgCl2 were preincubated with either library compounds dissolved in 1% DMSO or DMSO alone at RT for up to 2 h. To initiate the auto-ubiquitination reaction, 2 mM ATP-MgCl2 was added and incubated at 37 °C for 60–90 min. TR-FRET signal was measured in a Synergy 4 microplate reader (BioTek) using a 340/30 nm excitation filter and measuring the emission ratio using 485/20 nm and 528/20 nm emission filters. Fluorescence measurement was performed over a 400 µs window following a 100 µs delay post-excitation (Fig. 1). Similarly, TR-FRET assays were used to measure the auto-ubiquitination activity of two other Nedd4 family HECT E3 ligases (WWP1 and WWP2) using alternative optimized buffer and fluorophore concentrations to test Nedd4 inhibitor specificity (Supplementary Table 2).
For selectivity assays, we used C-terminal His-tagged WWP1 and WWP2 bound to Tb-labelled
anti-His-tag antibody and FITC-labelled ubiquitin.
Tb-SA 50 nM AntiHis-Tb 16.5 nM AntiHis-Tb 10 nM
NaCl 150 mM NaCl 0 mM NaCl 0 mM
TCEP 0.1 mM TCEP 0.1 mM TCEP 0.1 mM
DMSO 1 % DMSO 1 % DMSO 1 %
MgCl2 2 mM MgCl2 2 mM MgCl2 2 mM
ATP 2 mM ATP 2 mM ATP 2 mM

WWP2 = WWP2 (Homo sapiens, UniProt O00308); conditions: 200 µM
Chain of WWP2 (O00308 whole entry): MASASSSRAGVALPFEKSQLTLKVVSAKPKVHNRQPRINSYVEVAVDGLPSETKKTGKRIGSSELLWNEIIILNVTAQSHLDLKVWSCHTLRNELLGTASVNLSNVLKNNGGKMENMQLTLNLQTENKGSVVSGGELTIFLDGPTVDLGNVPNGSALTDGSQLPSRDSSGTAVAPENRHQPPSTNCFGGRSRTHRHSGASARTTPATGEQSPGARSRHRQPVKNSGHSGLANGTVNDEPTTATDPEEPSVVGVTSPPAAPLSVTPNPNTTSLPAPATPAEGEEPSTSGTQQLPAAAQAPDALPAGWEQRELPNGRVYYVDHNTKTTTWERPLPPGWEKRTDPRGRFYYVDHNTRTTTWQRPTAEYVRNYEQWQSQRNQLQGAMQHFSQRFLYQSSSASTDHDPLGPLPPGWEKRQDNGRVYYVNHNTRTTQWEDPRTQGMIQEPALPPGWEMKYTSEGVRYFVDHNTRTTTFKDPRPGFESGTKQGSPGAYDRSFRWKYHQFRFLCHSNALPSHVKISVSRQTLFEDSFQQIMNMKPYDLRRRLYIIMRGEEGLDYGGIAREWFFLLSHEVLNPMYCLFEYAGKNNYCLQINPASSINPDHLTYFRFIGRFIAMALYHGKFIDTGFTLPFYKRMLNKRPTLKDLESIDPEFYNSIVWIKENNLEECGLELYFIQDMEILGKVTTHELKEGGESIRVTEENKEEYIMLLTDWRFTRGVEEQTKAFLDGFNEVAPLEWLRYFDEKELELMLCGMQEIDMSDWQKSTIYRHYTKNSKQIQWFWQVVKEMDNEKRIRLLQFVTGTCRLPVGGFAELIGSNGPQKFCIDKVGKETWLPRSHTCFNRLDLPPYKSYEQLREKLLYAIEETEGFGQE
Experimental: as §3
For selectivity assays, we used C-terminal His-tagged WWP1 and WWP2 bound to Tb-labelled […]

Nedd4 [3] = biological target: T1, Nedd4; assay: biochemical
Experimental: as §1, §2

Nedd4 C627A = biological target: T2, Nedd4 C627A (Homo sapiens, UniProt P46934, C1046A); assay: TR-FRET auto-ubiquitination assay of Nedd4 mutant C627A; format: biochemical; conditions: 2 h at RT, read-out: retention of uninhibited C627A activity
T2 construct: full length C182A, C627A, C867A, and C627A + C867A mutants; made in house; host or cells: E. coli BL21 (D3)-BirA
T2 sequence (P46934 1-900 isoform P46934-4 C627A): T1 sequence (P46934 1-900 isoform P46934-4) with C627A
Experimental: (§4) All time-resolved fluorescence resonance energy transfer (TR-FRET) auto-ubiquitination assays were performed in a final volume of 10 µL in PerkinElmer 384-well flat bottom white OptiPlate™ polystyrene microplates (PerkinElmer Cat. No. 6007290). […] A low concentration of NP-40 detergent (0.00063% v/v) was chosen for the Nedd4 auto-ubiquitination assay since this concentration yielded optimal terbium emission at 485 nm after 340 nm excitation (Supplementary Fig. 2). Concentrations of Ub activating (E1) and conjugating (E2) enzymes and fluorophores were selected to provide sufficient TR-FRET signal intensity for compound screening without excessive reagent consumption (Supplementary Fig. 3). Reaction mixes containing all assay components except ATP-MgCl2 were preincubated with either library compounds dissolved in 1% DMSO or DMSO alone at RT for up to 2 h. […] TR-FRET signal was measured in a Synergy 4 microplate reader (BioTek) using a 340/30 nm excitation filter and measuring the emission ratio using 485/20 nm and 528/20 nm emission filters. Fluorescence measurement was performed over a 400 µs window following a 100 µs delay post-excitation (Fig. 1).
(§5) All assays were carried out in triplicate with the data representing the mean with standard deviation. […] Auto-ubiquitination reactions were allowed to proceed for 1 h at 37 °C and then read through the TR-FRET assay described in the methods.

Nedd4 [4] = biological target: T1, Nedd4; assay: LC–MS/MS covalent adduction and site identification; format: binding; design: 30 µg of N-terminal His-tagged and C-terminal biotinylated Nedd4 (residue 1–900); made in house; host or cells: E. coli BL21 (D3)-BirA
Experimental: Samples were run on SDS-PAGE and stained with Coomassie Brilliant Blue R-250 (Thermo Fisher Scientific cat no. 20278). Gels were destained in water until the desired contrast was reached. The Nedd4 bands were cut and stored in 1% acetic acid at 4 °C until use. Samples were submitted to the SPARC Molecular Analysis Centre at the Hospital for Sick Children (Toronto, ON, CA) for LC–MS/MS analysis. Each gel band was cut into 3 pieces and digested with 0.8 µg pepsin, 0.6 µg trypsin and 0.6 µg chymotrypsin separately. The peptides obtained through the proteolytic digest were combined then lyophilized and resuspended in 0.1% formic acid. These samples were then subjected to MS/MS spectroscopy by an EASY-nLC 1200 nano-LC system + Thermo Scientific Orbitrap Fusion Lumos Tribrid mass spectrometer. MS data was analyzed using Scaffold PTM 4.0.1.

Nedd4 [5] = biological target: T1, Nedd4; assay: Western blotting for ubiquitination and biotinylated Nedd4; format: biochemical; conditions: 50 and 100 µM, 2 h at RT
Experimental: The auto-ubiquitination reactions were initiated with the addition of 2 mM ATP-MgCl2. Another control reaction was performed without the addition of ATP-MgCl2 for comparison (negative control).

Nedd4 C627A + C867A = biological target: T3, Nedd4 C627A + C867A (Homo sapiens, UniProt P46934, C1046A/C1286A); assay: TR-FRET auto-ubiquitination assay of Nedd4 double mutant C627A + C867A; format: biochemical; conditions: 200 µM, 2 h at RT
T3 construct: full length C182A, C627A, C867A, and C627A + C867A mutants; made in house; host or cells: E. coli BL21 (D3)-BirA
T3 sequence (P46934 1-900 isoform P46934-4 C627A/C867A): T1 sequence (P46934 1-900 isoform P46934-4) with C627A, C867A
Experimental: as §4, §5

Nedd4 C867A = biological target: T4, Nedd4 C867A (Homo sapiens, UniProt P46934, C1286A); assay: TR-FRET auto-ubiquitination assay of Nedd4 mutant C867A; format: biochemical; conditions: 200 µM, 2 h at RT
T4 construct: full length C182A, C627A, C867A, and C627A + C867A mutants; made in house; host or cells: E. coli BL21 (D3)-BirA
T4 sequence (P46934 1-900 isoform P46934-4 C867A): T1 sequence (P46934 1-900 isoform P46934-4) with C867A
Experimental: as §4, §5

[6] = 200 µM compound, 3 h incubation

OCc1c[nH]c2ccccc12 [Compound 5, Indole-3-carbinol, reference compound]
inhibition (Nedd4 [1]; 500 µM): 33%
IC50 (Nedd4 [2]; previously reported): 284 µM

OCc1cn(Cc2ccccc2)c2ccccc12 [Compound 1-benzyl-I3C, 1-benzyl-I3C]
IC50 (Nedd4 [2]; measured through an ELISA-based assay of Nedd4 activity): 12.3 µM

O=C(CCl)c1c[nH]c2ccncc12 [Compound 13]
inhibition (WWP1): 47% and 72%
inhibition (WWP2): 58% and 73%

Cc1cc(C(=O)CCl)c(C)[nH]1 [Compound 23]
inhibition (WWP1): ~25%
IC50 (Nedd4 [3]): < 60 µM and 56 µM

O=C(CCl)c1ccccn1 [Compound 81]
inhibition (Nedd4 [1]; 200 µM): > 50%
IC50 (Nedd4 [3]): 31 µM and < 60 µM
activity at 200 µM (Nedd4 C627A): 30%
cysteine adduction sites confirmed by MS/MS (Nedd4 [4]; 200 µM compound, 3 h at RT): all three of the confirmed cysteine residues
Occurrence Among Observed Peptides, Cysteine Site C182 (Nedd4 [4]; [6]): 25/67
Occurrence Among Observed Peptides, Cysteine Site C627 (Nedd4 [4]; [6]): 8/12
Occurrence Among Observed Peptides, Cysteine Site C867 (Nedd4 [4]; [6]): 21/50
Localization Probability of Compound 81 modification on cysteine (Cys627 peptide) (Nedd4 [4]; sheet "81 Mod Cys627", per peptide spectrum match, residues 639-657, C11 or C9 of the peptide): 100% and 72%, 0%, 100% and 100%, 100%
effect on Nedd4 auto-ubiquitination by Western blot (Nedd4 [5]): complete loss of auto-ubiquitination
change of C627A + C867A mutant activity on incubation with compound (Nedd4 C627A + C867A): No significant differences
change of C867A mutant activity on incubation with compound (Nedd4 C867A): No significant differences

Cn1ccc(C(=O)CCl)c1 [Compound 24]
IC50 (Nedd4 [3]): 116 µM and 115 µM

Cc1cc(C(=O)C(C)Cl)c(C)n1Cc1ccco1 (centres unmarked) [Compound 36]
IC50 (Nedd4 [3]): 113 µM and 110 µM

Cc1cc(C(=O)CCl)c(C)n1-c1ccccc1 [Compound 20]
IC50 (Nedd4 [3]): 244 µM and 240 µM

COCCn1c(C)cc(C(=O)CCl)c1C [Compound 21]
IC50 (Nedd4 [3]): 143 µM and 140 µM

Cc1cc(C(=O)CCl)c(C)n1CCC(C)C [Compound 29]
IC50 (Nedd4 [3]): 88 µM and 90 µM

O=C(CCl)c1c[nH]c2ccccc12 [Compound 25]
inhibition (WWP1): ~25%

Cn1cc(C(=O)CCl)c2ccccc21 [Compound 6]
IC50 (Nedd4 [3]): 174 µM and 170 µM

COC(=O)c1ccc2[nH]cc(C(=O)CCl)c2c1 [Compound 11]
IC50 (Nedd4 [3]): 96.8 µM and 100 µM
